Common to all, as to format: in vivo
For one assay, the system named is Abutilon theophrasti. Nature of the assay: Herbicidal screen, post-emergence spray of seedlings in pots: velvetleaf. To be noted: Abutilon theophrasti, post-emergence, 240 h, assessed 10 days after treatment, read-out: percentage increase in necrosis relative to the control. On the procedure:
(§1) Compounds were screened at four concentrations (100, 50, 25 and 12.5 g/ha) against four weed species (Stellaria media—Chickweed; Abutilon theophrasti—velvetleaf; Amaranthus retroflexus—common amaranthus; Echinochloa crus-galli—Barnyard grass) and maize as a crop species. Seed were sown in 12.5 cm diameter pots (20 per pot for the weed species and 5 for maize). Seedlings were sprayed with 2 ml of compound two weeks after sowing, with 2 ml water used as the control. Each treatment was replicated three times. Plants were maintained at 20° C. and assessed 10 days after treatment. The assessment was based on the % plant in each pot showing growth. The data is presented in Table 1 in which d represents no detected effect at this concentration; c represents a percentage increase in necrosis relative to the control of 0.1-50; b represents a percentage increase in necrosis of 50-80; and a represents a percentage increase in necrosis of 80-100.

The subject of the next assay is Echinochloa crus-galli. The assay is described as follows: Herbicidal screen, post-emergence spray of seedlings in pots: Barnyard grass. To be noted: Echinochloa crus-galli, post-emergence, 240 h, assessed 10 days after treatment, read-out: percentage increase in necrosis relative to the control. How it is done: as §1
The test system of the next assay is four weed species. Nature of the assay: Herbicidal screen, summary across the four weed species. To be noted: summary in words, 12.5-100 g/ha. How it is done: as §1
A further assay concerns maize. Nature of the assay: Herbicidal screen, post-emergence spray of seedlings in pots: crop species. To be noted: Zea mays, post-emergence, 240 h, assessed 10 days after treatment, read-out: percentage increase in necrosis relative to the control. How it is done: as §1
The test system of another assay is Amaranthus retroflexus. Nature of the assay: Herbicidal screen, post-emergence spray of seedlings in pots: common amaranthus. To be noted: Amaranthus retroflexus, post-emergence, 240 h, assessed 10 days after treatment, read-out: percentage increase in necrosis relative to the control. On the procedure:
as §1

The next assay relates to Stellaria media. Nature of the assay: Herbicidal screen, post-emergence spray of seedlings in pots: Chickweed. To be noted: Stellaria media, post-emergence, 240 h, assessed 10 days after treatment, read-out: percentage increase in necrosis relative to the control. On the procedure: as §1

Consider 4 molecules from US11634390B2, “Agricultural chemicals” (GLOBACHEM NV, priority 2016, dated 2023).

As for `Cn1c(C(F)(F)F)cc(=O)n(-c2cc(C(=O)NS(=O)(=O)C3CCCCC3)c(Cl)cc2F)c1=O` [Example 14, 2-Chloro-N-(cyclohexylsulfonyl)-4-fluoro-5-(3-methyl-2,6-dioxo-4-(trifluoromethyl)-3,6-dihydropyrimidin-1(2H)-yl)benzamide], in the assay with Abutilon theophrasti, the pest or weed control at 12.5 g/ha was 50 to 80%, the pest or weed control at 25 g/ha was 50 to 80%, the pest or weed control at 50 g/ha lay in the range of 80 to 100% and the pest or weed control at 100 g/ha was in the range of 80 to 100%. Also, in the assay with Echinochloa crus-galli, the pest or weed control at 12.5 g/ha is 0.1 to 50%, the pest or weed control at 25 g/ha fell in the range of 0.1 to 50%, the pest or weed control at 50 g/ha fell in the range of 0.1 to 50% and the pest or weed control at 100 g/ha lay within 0.1 to 50%. For the same molecule, the “herbicidal activity against the weed species” value (“herbicidal activity” for short) in the assay with four weed species is on record as “good activity across several of the weed species”. In the assay on maize, the plant injury at 12.5 g/ha was 0.1 to 50%, the plant injury at 25 g/ha was in the range of 0.1 to 50%, the plant injury at 50 g/ha lay within 0.1 to 50% and the plant injury at 100 g/ha was 0.1 to 50%. For the same molecule, in the assay on Amaranthus retroflexus, the pest or weed control at 12.5 g/ha lay within 80 to 100%, the pest or weed control at 25 g/ha is 80 to 100%, the pest or weed control at 50 g/ha was 80 to 100% and the pest or weed control at 100 g/ha lay within 80 to 100%. Further, in the assay with Stellaria media, the pest or weed control at 12.5 g/ha lay within 0.1 to 50%, the pest or weed control at 25 g/ha is 0.1 to 50%, the pest or weed control at 50 g/ha is 50 to 80% and the pest or weed control at 100 g/ha lay in the range of 80 to 100%.
On to `CN1CCC(S(=O)(=O)NC(=O)c2cc(-n3c(=O)cc(C(F)(F)F)n(C)c3=O)c(F)cc2Cl)C1.Cl` (stereo not drawn) [Example 5, 2-Chloro-4-fluoro-5-(3-methyl-2,6-dioxo-4-(trifluoromethyl)-3,6-dihydropyrimidin-1(2H)-yl)-N-((1-methylpyrrolidin-3-yl)sulfonyl)benzamide hydrochloride], for which, in the assay on Abutilon theophrasti, the pest or weed control at 12.5 g/ha fell in the range of 0.1 to 50%, the pest or weed control at 25 g/ha is 50 to 80%, the pest or weed control at 50 g/ha fell in the range of 80 to 100% and the pest or weed control at 100 g/ha lay within 80 to 100%. Further, in the assay with Echinochloa crus-galli, the pest or weed control at 12.5 g/ha lay in the range of 0.1 to 50%, the pest or weed control at 25 g/ha was 0.1 to 50%, the pest or weed control at 50 g/ha was 0.1 to 50% and the pest or weed control at 100 g/ha was in the range of 50 to 80%. Besides, the “herbicidal activity” value with four weed species was “good activity across several of the weed species”. Besides, in the assay with maize, the plant injury at 12.5 g/ha lay within 0.1 to 50%, the plant injury at 25 g/ha lay in the range of 0.1 to 50%, the plant injury at 50 g/ha is 0.1 to 50% and the plant injury at 100 g/ha lay within 0.1 to 50%. Moreover, in the assay on Amaranthus retroflexus, the pest or weed control at 12.5 g/ha was in the range of 80 to 100%, the pest or weed control at 25 g/ha lay in the range of 80 to 100%, the pest or weed control at 50 g/ha was 80 to 100% and the pest or weed control at 100 g/ha lay in the range of 80 to 100%. Moreover, in the assay on Stellaria media, the pest or weed control at 12.5 g/ha lay in the range of 0.1 to 50%, the pest or weed control at 25 g/ha was 0.1 to 50%, the pest or weed control at 50 g/ha was in the range of 50 to 80% and the pest or weed control at 100 g/ha was in the range of 50 to 80%.
As to `CCC1(S(=O)(=O)NC(=O)c2cc(-n3c(=O)cc(C(F)(F)F)n(C)c3=O)c(F)cc2Cl)CC1` [Example 17, 2-Chloro-N-((1-ethylcyclopropyl)sulfonyl)-4-fluoro-5-(3-methyl-2,6-dioxo-4-(trifluoromethyl)-3,6-dihydropyrimidin-1(2H)-yl)benzamide], in the assay on Abutilon theophrasti, the pest or weed control at 12.5 g/ha lay in the range of 0.1 to 50%, the pest or weed control at 25 g/ha fell in the range of 0.1 to 50%, the pest or weed control at 50 g/ha was 50 to 80% and the pest or weed control at 100 g/ha was 80 to 100%. Moreover, in the assay on Echinochloa crus-galli, the pest or weed control at 12.5 g/ha fell in the range of 0.1 to 50%, the pest or weed control at 25 g/ha lay within 50 to 80%, the pest or weed control at 50 g/ha lay within 50 to 80% and the pest or weed control at 100 g/ha lay in the range of 50 to 80%. For the same molecule, in the assay with four weed species, the “herbicidal activity” value is “good activity across several of the weed species”. Besides, in the assay with maize, the plant injury at 12.5 g/ha lay within 0.1 to 50%, the plant injury at 25 g/ha is 0.1 to 50%, the plant injury at 50 g/ha was in the range of 0.1 to 50% and the plant injury at 100 g/ha was 0.1 to 50%. Besides, in the assay with Amaranthus retroflexus, the pest or weed control at 12.5 g/ha was in the range of 0.1 to 50%, the pest or weed control at 25 g/ha was in the range of 50 to 80%, the pest or weed control at 50 g/ha lay in the range of 80 to 100% and the pest or weed control at 100 g/ha was in the range of 80 to 100%. Further, in the assay with Stellaria media, the pest or weed control at 12.5 g/ha lay within 0.1 to 50%, the pest or weed control at 25 g/ha was 50 to 80%, the pest or weed control at 50 g/ha lay in the range of 50 to 80% and the pest or weed control at 100 g/ha is 80 to 100%.
`Cn1c(C(F)(F)F)cc(=O)n(-c2cc(C(=O)NS(=O)(=O)C3CCCC3)c(Cl)cc2F)c1=O` [Example 13, 2-Chloro-N-(cyclopentylsulfonyl)-4-fluoro-5-(3-methyl-2,6-dioxo-4-(trifluoromethyl)-3,6-dihydropyrimidin-1(2H)-yl)benzamide]: in the assay on Abutilon theophrasti, the pest or weed control at 12.5 g/ha is 0.1 to 50%, the pest or weed control at 25 g/ha was 50 to 80%, the pest or weed control at 50 g/ha is 50 to 80% and the pest or weed control at 100 g/ha lay in the range of 80 to 100%. In the assay on Echinochloa crus-galli, the pest or weed control at 12.5 g/ha is 0.1 to 50%, the pest or weed control at 25 g/ha is 0.1 to 50%, the pest or weed control at 50 g/ha was 0.1 to 50% and the pest or weed control at 100 g/ha was in the range of 0.1 to 50%. Besides, in the assay on four weed species, the “herbicidal activity” value is listed as “good activity across several of the weed species”. Moreover, in the assay with maize, the plant injury at 12.5 g/ha fell in the range of 0.1 to 50%, the plant injury at 25 g/ha was 0.1 to 50%, the plant injury at 50 g/ha is 0.1 to 50% and the plant injury at 100 g/ha is 0.1 to 50%. In addition, in the assay with Amaranthus retroflexus, the pest or weed control at 12.5 g/ha fell in the range of 50 to 80%, the pest or weed control at 25 g/ha was in the range of 50 to 80%, the pest or weed control at 50 g/ha is 80 to 100% and the pest or weed control at 100 g/ha was 80 to 100%. Also, in the assay on Stellaria media, the pest or weed control at 12.5 g/ha lay in the range of 0.1 to 50%, the pest or weed control at 25 g/ha lay within 0.1 to 50%, the pest or weed control at 50 g/ha fell in the range of 0.1 to 50% and the pest or weed control at 100 g/ha lay in the range of 0.1 to 50%.
